Inhibition and inhibition of growth data for 24 compounds are collected here from ChEMBL document CHEMBL2150935, “Synthesis, biological evaluation and chemometric analysis of indazole derivatives. 1,2-Disubstituted 5-nitroindazolinones, new prototypes of antichagasic drug” (Eur J Med Chem, 2012).

The nature of series [1]: Growth inhibition of mouse J774 cells at 256 uM after 24 hrs by resazurin reduction assay. The class given is cell-based. Conditions: read-out: GI.
Series [2] concerns Trypanosoma cruzi. Nature of the series: Growth inhibition of epimastigote form of Trypanosoma cruzi CL-B5 at 128 uM after 72 hrs by lacZ reporter gene assay. Conditions: CL-B5, 72 h, read-out: GI. The class given is functional.
Series [3] deals with Trypanosoma cruzi. Description: Growth inhibition of epimastigote form of Trypanosoma cruzi CL-B5 at 64 uM after 72 hrs by lacZ reporter gene assay. The class given is functional. Conditions: CL-B5, 72 h, read-out: GI.
In series [4] the test system is Trypanosoma cruzi. Nature of the series: Growth inhibition of epimastigote form of Trypanosoma cruzi CL-B5 at 256 uM after 72 hrs by lacZ reporter gene assay. The class given is functional. Conditions: CL-B5, 72 h, read-out: GI.
Series [5] can be described thus: Growth inhibition of mouse J774 cells at 128 uM after 24 hrs by resazurin reduction assay. The class given is cell-based. Conditions: read-out: GI.
Series [6] can be described thus: Growth inhibition of mouse J774 cells at 64 uM after 24 hrs by resazurin reduction assay. Conditions: read-out: GI. The class given is cell-based.

SMILES strings stand for the structures.

As to `CCCn1c2ccc([N+](=O)[O-])cc2c(=O)n1-c1ccccc1`, the inhibition at 24 h, 256 µM in series [1] is 0%. Besides, the inhibition of growth at 128 µM with Trypanosoma cruzi [2] is 76.5%. Moreover, the inhibition of growth at 64 µM with Trypanosoma cruzi [3] was 71.8%. Also, the inhibition of growth at 256 µM in the series with Trypanosoma cruzi [4] amounted to 86.1%. In addition, the inhibition at 24 h, 128 µM in series [5] was 0%. Moreover, the inhibition at 24 h, 64 µM in series [6] is 0%.

As to `Cn1c(=O)c2cc([N+](=O)[O-])ccc2n1C`, in series [1], the inhibition at 24 h, 256 µM came to 0%. For the same compound, the inhibition of growth at 128 µM with Trypanosoma cruzi [2] worked out at 42.8%. For the same compound, the inhibition of growth at 64 µM with Trypanosoma cruzi [3] stood at 42.7%. Also, in the series with Trypanosoma cruzi [4], the inhibition of growth at 256 µM is 68%. In addition, the inhibition at 24 h, 128 µM in series [5] is 0%. The inhibition at 24 h, 64 µM in series [6] is 11.4%.

Regarding `Cn1c2ccc([N+](=O)[O-])cc2c(=O)n1CCc1ccccc1`, in series [1], the inhibition at 24 h, 256 µM turned out to be 0%. Further, the inhibition of growth at 128 µM in the series on Trypanosoma cruzi [2] amounted to 29.1%. Further, the inhibition of growth at 64 µM in the series with Trypanosoma cruzi [3] is 49.6%. The inhibition of growth at 256 µM in the series on Trypanosoma cruzi [4] stood at 23.4%. The inhibition at 24 h, 128 µM in series [5] was determined as 0%. The inhibition at 24 h, 64 µM in series [6] amounted to 0%.

On to `Cn1c2ccccc2c(=O)n1Cc1ccccc1`, for which the inhibition of growth at 128 µM in the series on Trypanosoma cruzi [2] came to 36.6%. The inhibition of growth at 64 µM in the series on Trypanosoma cruzi [3] turned out to be 28%. For the same compound, the inhibition of growth at 256 µM with Trypanosoma cruzi [4] stood at 55.8%.

`O=[N+]([O-])c1ccc2nn(Cc3ccccc3)c(OCc3ccccc3)c2c1`: the inhibition at 24 h, 256 µM in series [1] was determined as 64.7%. Further, the inhibition of growth at 128 µM with Trypanosoma cruzi [2] amounted to 43.5%. Further, the inhibition of growth at 64 µM in the series on Trypanosoma cruzi [3] is 51.8%. Also, the inhibition of growth at 256 µM in the series with Trypanosoma cruzi [4] is 34.5%. Also, in series [5], the inhibition at 24 h, 128 µM worked out at 15.2%.

In the case of `Cn1c2ccc([N+](=O)[O-])cc2c(=O)n1Cc1ccccc1`, the inhibition at 24 h, 256 µM in series [1] turned out to be 0%. Also, the inhibition of growth at 128 µM in the series with Trypanosoma cruzi [2] came to 86%. For the same compound, the inhibition of growth at 64 µM with Trypanosoma cruzi [3] was 83.3%. Further, in the series on Trypanosoma cruzi [4], the inhibition of growth at 256 µM came to 91.7%. The inhibition at 24 h, 128 µM in series [5] turned out to be 29%. The inhibition at 24 h, 64 µM in series [6] turned out to be 15.2%.

Turning to `Cn1c2ccc([N+](=O)[O-])cc2c(=O)n1Cc1ccc2ccccc2c1`, in series [1], the inhibition at 24 h, 256 µM came out at 0%. Moreover, in the series with Trypanosoma cruzi [2], the inhibition of growth at 128 µM was determined as 40.9%. Moreover, the inhibition of growth at 64 µM in the series on Trypanosoma cruzi [3] came to 42.5%. Besides, the inhibition of growth at 256 µM with Trypanosoma cruzi [4] turned out to be 37.7%. In addition, the inhibition at 24 h, 128 µM in series [5] was determined as 0%. In series [6], the inhibition at 24 h, 64 µM amounted to 0%.

Consider `CC(C)n1c2ccc([N+](=O)[O-])cc2c(=O)n1C`, for which the inhibition at 24 h, 256 µM in series [1] worked out at 0%. The inhibition of growth at 128 µM in the series on Trypanosoma cruzi [2] stood at 10.5%. In the series with Trypanosoma cruzi [3], the inhibition of growth at 64 µM was determined as 7.45%. In addition, the inhibition of growth at 256 µM with Trypanosoma cruzi [4] is 13.2%. In addition, in series [5], the inhibition at 24 h, 128 µM was 0%. Besides, the inhibition at 24 h, 64 µM in series [6] was found to be 0%.

On to `CCCn1c2ccc([N+](=O)[O-])cc2c(=O)n1C`, for which the inhibition at 24 h, 256 µM in series [1] is 0%. In addition, the inhibition of growth at 128 µM in the series with Trypanosoma cruzi [2] was 7.92%. Moreover, in the series on Trypanosoma cruzi [3], the inhibition of growth at 64 µM was 3.05%. In addition, in the series with Trypanosoma cruzi [4], the inhibition of growth at 256 µM amounted to 11.6%. Also, in series [5], the inhibition at 24 h, 128 µM was determined as 0%. Also, the inhibition at 24 h, 64 µM in series [6] came out at 0%.

Regarding `COc1c2cc([N+](=O)[O-])ccc2nn1Cc1ccccc1`, in series [1], the inhibition at 24 h, 256 µM was 6.83%. The inhibition of growth at 128 µM with Trypanosoma cruzi [2] came to 38.1%. Further, the inhibition of growth at 64 µM in the series with Trypanosoma cruzi [3] was determined as 48.3%. Further, the inhibition of growth at 256 µM in the series on Trypanosoma cruzi [4] amounted to 21.2%. Also, in series [5], the inhibition at 24 h, 128 µM is 0%. Also, the inhibition at 24 h, 64 µM in series [6] was 0%.

For the compound `CCCCCn1c2ccc([N+](=O)[O-])cc2c(=O)n1Cc1ccccc1`, the inhibition at 24 h, 256 µM in series [1] stood at 81%. Also, the inhibition of growth at 128 µM in the series with Trypanosoma cruzi [2] worked out at 90%. Besides, the inhibition of growth at 64 µM in the series on Trypanosoma cruzi [3] was found to be 85.2%. Moreover, in the series with Trypanosoma cruzi [4], the inhibition of growth at 256 µM was determined as 90.2%. For the same compound, the inhibition at 24 h, 128 µM in series [5] was determined as 71.8%. Besides, the inhibition at 24 h, 64 µM in series [6] was 54.1%.

In the case of `COc1c2cc([N+](=O)[O-])ccc2nn1Cc1ccc2ccccc2c1`, the inhibition at 24 h, 256 µM in series [1] worked out at 9.31%. For the same compound, the inhibition of growth at 128 µM in the series on Trypanosoma cruzi [2] was determined as 35.6%. Moreover, the inhibition of growth at 64 µM in the series with Trypanosoma cruzi [3] worked out at 27%. The inhibition of growth at 256 µM in the series on Trypanosoma cruzi [4] was 72.5%.

For the compound `CC(C)Oc1c2cc([N+](=O)[O-])ccc2nn1C`, the inhibition at 24 h, 256 µM in series [1] was determined as 20%. Further, the inhibition of growth at 128 µM in the series with Trypanosoma cruzi [2] was 70.5%. Besides, the inhibition of growth at 64 µM in the series with Trypanosoma cruzi [3] is 71.5%. Also, the inhibition of growth at 256 µM in the series on Trypanosoma cruzi [4] was 71.9%. In addition, in series [5], the inhibition at 24 h, 128 µM turned out to be 19.2%. Also, the inhibition at 24 h, 64 µM in series [6] was 6.34%.

`COc1nn(-c2ccccc2)c2ccc([N+](=O)[O-])cc12`: the inhibition at 24 h, 256 µM in series [1] is 27.1%. Besides, the inhibition of growth at 128 µM in the series with Trypanosoma cruzi [2] was found to be 40.3%. In addition, the inhibition of growth at 64 µM in the series on Trypanosoma cruzi [3] amounted to 21.4%. Besides, the inhibition of growth at 256 µM in the series with Trypanosoma cruzi [4] was determined as 56.3%.

With `CC(C)Oc1c2cc([N+](=O)[O-])ccc2nn1Cc1ccc2ccccc2c1`, the inhibition of growth at 128 µM with Trypanosoma cruzi [2] amounted to 76.6%. Moreover, in the series on Trypanosoma cruzi [3], the inhibition of growth at 64 µM came out at 76.5%. The inhibition of growth at 256 µM with Trypanosoma cruzi [4] stood at 63.7%. For the same compound, the inhibition at 24 h, 64 µM in series [6] worked out at 26.5%.

`Cn1c(=O)c2cc([N+](=O)[O-])ccc2n1Cc1ccccc1`: the inhibition at 24 h, 256 µM in series [1] is 6.33%. Moreover, the inhibition of growth at 128 µM in the series on Trypanosoma cruzi [2] amounted to 70.3%. In addition, the inhibition of growth at 64 µM in the series with Trypanosoma cruzi [3] was 39.8%. Moreover, the inhibition of growth at 256 µM with Trypanosoma cruzi [4] was 80.6%. Moreover, the inhibition at 24 h, 128 µM in series [5] was 6.91%. Besides, in series [6], the inhibition at 24 h, 64 µM is 0.55%.

As for `COc1c2cc([N+](=O)[O-])ccc2nn1-c1ccccc1`, the inhibition of growth at 128 µM in the series with Trypanosoma cruzi [2] was 0%. In the series with Trypanosoma cruzi [3], the inhibition of growth at 64 µM stood at 0%. Besides, the inhibition of growth at 256 µM in the series with Trypanosoma cruzi [4] came to 2.81%.

Consider `COc1c2cc([N+](=O)[O-])ccc2nn1C`, for which the inhibition at 24 h, 256 µM in series [1] is 21.6%. In the series with Trypanosoma cruzi [2], the inhibition of growth at 128 µM was 79.2%. In the series with Trypanosoma cruzi [3], the inhibition of growth at 64 µM stood at 67.8%. In addition, the inhibition of growth at 256 µM in the series on Trypanosoma cruzi [4] was found to be 78.7%. In series [5], the inhibition at 24 h, 128 µM stood at 6.57%. Moreover, in series [6], the inhibition at 24 h, 64 µM amounted to 0%.

In the case of `CCCOc1c2cc([N+](=O)[O-])ccc2nn1C`, the inhibition at 24 h, 256 µM in series [1] is 62.4%. Also, in the series with Trypanosoma cruzi [2], the inhibition of growth at 128 µM is 16.9%. The inhibition of growth at 64 µM in the series on Trypanosoma cruzi [3] is 27.4%. The inhibition of growth at 256 µM in the series with Trypanosoma cruzi [4] came out at 91.2%. The inhibition at 24 h, 128 µM in series [5] came out at 35.3%. The inhibition at 24 h, 64 µM in series [6] amounted to 0%.

`Cn1c(=O)c2cc([N+](=O)[O-])ccc2n1-c1ccccc1`: in series [1], the inhibition at 24 h, 256 µM was found to be 43.1%. The inhibition of growth at 128 µM with Trypanosoma cruzi [2] was determined as 19.4%. The inhibition of growth at 64 µM with Trypanosoma cruzi [3] was 14.2%. In addition, the inhibition of growth at 256 µM in the series with Trypanosoma cruzi [4] is 26.6%.

Take `CCCCOc1c2cc([N+](=O)[O-])ccc2nn1Cc1ccccc1`: the inhibition at 24 h, 256 µM in series [1] turned out to be 26.3%. Also, the inhibition of growth at 128 µM in the series with Trypanosoma cruzi [2] came to 48.5%. For the same compound, in the series on Trypanosoma cruzi [3], the inhibition of growth at 64 µM is 24.6%. Also, the inhibition of growth at 256 µM in the series with Trypanosoma cruzi [4] was 54.7%.

On to `Cn1nc(OCc2ccc3ccccc3c2)c2cc([N+](=O)[O-])ccc21`, for which the inhibition of growth at 128 µM in the series with Trypanosoma cruzi [2] stood at 23.6%. Besides, the inhibition of growth at 64 µM with Trypanosoma cruzi [3] stood at 46.4%. Further, the inhibition of growth at 256 µM in the series with Trypanosoma cruzi [4] is 11.3%. In series [5], the inhibition at 24 h, 128 µM was found to be 9%. In addition, the inhibition at 24 h, 64 µM in series [6] came to 13.3%.

For the compound `CC(C)Oc1c2cc([N+](=O)[O-])ccc2nn1Cc1ccccc1`, the inhibition at 24 h, 256 µM in series [1] stood at 41.4%. Moreover, the inhibition of growth at 128 µM with Trypanosoma cruzi [2] came to 67.1%. Besides, in the series on Trypanosoma cruzi [3], the inhibition of growth at 64 µM was 56.2%. Further, the inhibition of growth at 256 µM with Trypanosoma cruzi [4] was found to be 70.8%.

Consider `CC(C)Oc1c2cc([N+](=O)[O-])ccc2nn1-c1ccccc1`, for which, in the series on Trypanosoma cruzi [2], the inhibition of growth at 128 µM is 11.3%. Besides, the inhibition of growth at 64 µM with Trypanosoma cruzi [3] was 20.7%. Further, the inhibition of growth at 256 µM in the series on Trypanosoma cruzi [4] was 6.26%.
